{"source": "PubChem BioAssay (NCI)", "assay_in_all_cases": "NCI anticancer screen, dose series, 48 h", "key": {"RXF-631 renal": {"system": "RXF-631 renal"}, "LXFL 529 NSCLC": {"system": "LXFL 529 NSCLC"}, "XF 498 CNS": {"system": "XF 498 CNS"}, "HOP-18 NSCLC": {"system": "HOP-18 NSCLC"}, "DLD-1 colon": {"system": "DLD-1 colon"}, "DMS 273 small cell lung": {"system": "DMS 273 small cell lung"}, "SNB-78 CNS": {"system": "SNB-78 CNS"}, "DMS 114 small cell lung": {"system": "DMS 114 small cell lung"}, "M19-MEL melanoma": {"system": "M19-MEL melanoma"}, "KM20L2 colon": {"system": "KM20L2 colon"}}, "note": "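Tested at 5 concentrations; 48 h exposure; 96-well plates; endpoints linearly interpolated, else capped at highest concentration. At the TGI there is no net growth.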"}
{"smiles": "O=C1COc2cc(NC(=S)Nc3ccccc3)ccc2N1", "values": [{"measurement": "TGI", "setting": "RXF-631 renal", "result": "> 100", "unit": "µM"}, {"measurement": "TGI", "setting": "LXFL 529 NSCLC", "result": "> 100", "unit": "µM"}, {"measurement": "TGI", "setting": "XF 498 CNS", "result": "> 100", "unit": "µM"}, {"measurement": "TGI", "setting": "HOP-18 NSCLC", "result": "> 100", "unit": "µM"}, {"measurement": "TGI", "setting": "DLD-1 colon", "result": "> 100", "unit": "µM"}, {"measurement": "TGI", "setting": "DMS 273 small cell lung", "result": "> 100", "unit": "µM"}, {"measurement": "TGI", "setting": "SNB-78 CNS", "result": "> 100", "unit": "µM"}, {"measurement": "TGI", "setting": "DMS 114 small cell lung", "result": "> 100", "unit": "µM"}, {"measurement": "TGI", "setting": "M19-MEL melanoma", "result": "> 100", "unit": "µM"}, {"measurement": "TGI", "setting": "KM20L2 colon", "result": "> 100", "unit": "µM"}]}
{"smiles": "CC1(C)OCN(c2ccc(N3CCOCC3)cc2)Cn2c1nc1ccccc12", "values": [{"measurement": "TGI", "setting": "LXFL 529 NSCLC", "result": "> 100", "unit": "µM"}, {"measurement": "TGI", "setting": "HOP-18 NSCLC", "result": "> 100", "unit": "µM"}, {"measurement": "TGI", "setting": "DLD-1 colon", "result": "> 100", "unit": "µM"}, {"measurement": "TGI", "setting": "DMS 273 small cell lung", "result": "> 100", "unit": "µM"}, {"measurement": "TGI", "setting": "SNB-78 CNS", "result": "> 100", "unit": "µM"}, {"measurement": "TGI", "setting": "DMS 114 small cell lung", "result": "> 100", "unit": "µM"}, {"measurement": "TGI", "setting": "M19-MEL melanoma", "result": "> 100", "unit": "µM"}, {"measurement": "TGI", "setting": "KM20L2 colon", "result": "> 100", "unit": "µM"}]}
{"smiles": "CCC1=CCN(c2cc(C)ccn2)OC1c1ccc(OC)cc1", "note": "(stereo not given)", "values": [{"measurement": "TGI", "setting": "RXF-631 renal", "result": "> 100", "unit": "µM"}, {"measurement": "TGI", "setting": "LXFL 529 NSCLC", "result": "> 100", "unit": "µM"}, {"measurement": "TGI", "setting": "DLD-1 colon", "result": "> 100", "unit": "µM"}, {"measurement": "TGI", "setting": "DMS 114 small cell lung", "result": 91.6, "unit": "µM"}, {"measurement": "TGI", "setting": "M19-MEL melanoma", "result": "> 100", "unit": "µM"}, {"measurement": "TGI", "setting": "KM20L2 colon", "result": "> 100", "unit": "µM"}]}
{"smiles": "OCC12C=CC(C1)c1ccccc12", "note": "(stereo not given)", "values": [{"measurement": "TGI", "setting": "RXF-631 renal", "result": "> 100", "unit": "µM"}, {"measurement": "TGI", "setting": "LXFL 529 NSCLC", "result": "> 100", "unit": "µM"}, {"measurement": "TGI", "setting": "HOP-18 NSCLC", "result": "> 100", "unit": "µM"}, {"measurement": "TGI", "setting": "DLD-1 colon", "result": "> 100", "unit": "µM"}, {"measurement": "TGI", "setting": "DMS 273 small cell lung", "result": "> 100", "unit": "µM"}, {"measurement": "TGI", "setting": "DMS 114 small cell lung", "result": "> 100", "unit": "µM"}, {"measurement": "TGI", "setting": "M19-MEL melanoma", "result": "> 100", "unit": "µM"}, {"measurement": "TGI", "setting": "KM20L2 colon", "result": "> 100", "unit": "µM"}]}
{"smiles": "CCC(CC)NC1=C(NC(C)=O)C(=O)c2ccccc2C1=O", "values": [{"measurement": "TGI", "setting": "LXFL 529 NSCLC", "result": "> 50", "unit": "µM"}, {"measurement": "TGI", "setting": "XF 498 CNS", "result": "> 50", "unit": "µM"}, {"measurement": "TGI", "setting": "DLD-1 colon", "result": "> 50", "unit": "µM"}, {"measurement": "TGI", "setting": "DMS 273 small cell lung", "result": "> 50", "unit": "µM"}, {"measurement": "TGI", "setting": "SNB-78 CNS", "result": "> 50", "unit": "µM"}, {"measurement": "TGI", "setting": "M19-MEL melanoma", "result": "> 50", "unit": "µM"}, {"measurement": "TGI", "setting": "KM20L2 colon", "result": "> 50", "unit": "µM"}]}
{"smiles": "CCOC1C(Br)Cn2c(=O)c3cc4ccccc4cc3c(=O)n2C1C", "note": "(stereo not given)", "values": [{"measurement": "TGI", "setting": "LXFL 529 NSCLC", "result": "> 100", "unit": "µM"}, {"measurement": "TGI", "setting": "XF 498 CNS", "result": "> 100", "unit": "µM"}, {"measurement": "TGI", "setting": "DLD-1 colon", "result": "> 100", "unit": "µM"}, {"measurement": "TGI", "setting": "DMS 273 small cell lung", "result": "> 100", "unit": "µM"}, {"measurement": "TGI", "setting": "SNB-78 CNS", "result": "> 100", "unit": "µM"}, {"measurement": "TGI", "setting": "DMS 114 small cell lung", "result": "> 100", "unit": "µM"}, {"measurement": "TGI", "setting": "M19-MEL melanoma", "result": "> 100", "unit": "µM"}, {"measurement": "TGI", "setting": "KM20L2 colon", "result": "> 100", "unit": "µM"}]}
{"smiles": "COc1ccc2nc3cc(Cl)ccc3c(Sc3ccc([N+](=O)[O-])cc3C)c2c1", "values": [{"measurement": "TGI", "setting": "LXFL 529 NSCLC", "result": "> 100", "unit": "µM"}, {"measurement": "TGI", "setting": "XF 498 CNS", "result": "> 100", "unit": "µM"}, {"measurement": "TGI", "setting": "HOP-18 NSCLC", "result": "> 100", "unit": "µM"}, {"measurement": "TGI", "setting": "DLD-1 colon", "result": "> 100", "unit": "µM"}, {"measurement": "TGI", "setting": "DMS 273 small cell lung", "result": "> 100", "unit": "µM"}, {"measurement": "TGI", "setting": "SNB-78 CNS", "result": "> 100", "unit": "µM"}, {"measurement": "TGI", "setting": "DMS 114 small cell lung", "result": "> 100", "unit": "µM"}, {"measurement": "TGI", "setting": "M19-MEL melanoma", "result": "> 100", "unit": "µM"}, {"measurement": "TGI", "setting": "KM20L2 colon", "result": "> 100", "unit": "µM"}]}
{"smiles": "CCN1C[C@]2(C)CC[C@H](O)C34C1C(C[C@@H]32)[C@@]1(O)CC[C@H]2C[C@@H]4[C@@H]1[C@H]2O", "values": [{"measurement": "TGI", "setting": "LXFL 529 NSCLC", "result": "> 100", "unit": "µM"}, {"measurement": "TGI", "setting": "HOP-18 NSCLC", "result": "> 100", "unit": "µM"}, {"measurement": "TGI", "setting": "DLD-1 colon", "result": "> 100", "unit": "µM"}, {"measurement": "TGI", "setting": "DMS 273 small cell lung", "result": "> 100", "unit": "µM"}, {"measurement": "TGI", "setting": "SNB-78 CNS", "result": "> 100", "unit": "µM"}, {"measurement": "TGI", "setting": "DMS 114 small cell lung", "result": "> 100", "unit": "µM"}, {"measurement": "TGI", "setting": "M19-MEL melanoma", "result": "> 100", "unit": "µM"}, {"measurement": "TGI", "setting": "KM20L2 colon", "result": "> 100", "unit": "µM"}]}
{"smiles": "CS(=O)(=O)C(C#N)c1nc2ccccc2nc1Cl", "note": "(stereo not given)", "values": [{"measurement": "TGI", "setting": "LXFL 529 NSCLC", "result": "> 100", "unit": "µM"}, {"measurement": "TGI", "setting": "XF 498 CNS", "result": "> 100", "unit": "µM"}, {"measurement": "TGI", "setting": "DLD-1 colon", "result": "> 100", "unit": "µM"}, {"measurement": "TGI", "setting": "DMS 273 small cell lung", "result": "> 100", "unit": "µM"}, {"measurement": "TGI", "setting": "SNB-78 CNS", "result": "> 100", "unit": "µM"}, {"measurement": "TGI", "setting": "DMS 114 small cell lung", "result": "> 100", "unit": "µM"}, {"measurement": "TGI", "setting": "M19-MEL melanoma", "result": "> 100", "unit": "µM"}]}
{"smiles": "COc1cc(C=O)c(-c2c(C=O)ccc3c2OCO3)c(OC)c1OC", "values": [{"measurement": "TGI", "setting": "RXF-631 renal", "result": "> 100", "unit": "µM"}, {"measurement": "TGI", "setting": "LXFL 529 NSCLC", "result": "> 100", "unit": "µM"}, {"measurement": "TGI", "setting": "HOP-18 NSCLC", "result": "> 100", "unit": "µM"}, {"measurement": "TGI", "setting": "DLD-1 colon", "result": "> 100", "unit": "µM"}, {"measurement": "TGI", "setting": "DMS 273 small cell lung", "result": "> 100", "unit": "µM"}, {"measurement": "TGI", "setting": "SNB-78 CNS", "result": "> 100", "unit": "µM"}, {"measurement": "TGI", "setting": "DMS 114 small cell lung", "result": "> 100", "unit": "µM"}, {"measurement": "TGI", "setting": "M19-MEL melanoma", "result": "> 100", "unit": "µM"}, {"measurement": "TGI", "setting": "KM20L2 colon", "result": "> 100", "unit": "µM"}]}
